Measurements: patent US20130064931A1, “INGREDIENT DELIVERY SYSTEM” (FIRMENICH SA, priority 2010, published 2013)
Values belong to the compound of their own block, whether it stands above or below them.

Tests used:
[1] = Photostability of compound 1 under UV (xenon lamp) irradiation, HPLC/UV-DAD measurement; format: physicochemical; conditions: for photodegradation protection of compound 1 (in words): Example 8, anionic and cationic surfactants; for % remaining (compound 1) / HPLC % remaining: 25 ppm compound 1 in water; for % remaining (compound 1): irradiated 120 min; for Time for complete degradation: compound 1 in water, HPLC % remaining reached 0
Method: (§1) The photostability of compound 1 under UV irradiation was studied as follows.
(§2) The sample to be irradiated was introduced into a transparent glass bottle, placed on a plate and then subjected to irradiation with a xenon lamp (Xenon lamp Suntest XLS+, Atlas Material Testing Technology LLC). The lamp was set to 650 W/m^2, the temperature was kept constant at 45° C. and the plate was turned slowly in order to assure homogeneous UV-exposure of the entire sample. After a fixed interval, the sample was removed and the content of compound 1 remaining was measured by HPLC and Fluorimetry.
Firstly, a standard solution containing 26.44 mg caffeine in 11 LC-MS grade methanol was prepared. For samples containing 10 ppm of compound 1, the sample was placed in a vial, diluted to 500 μl and 50 μl of the standard solution was added; for samples containing 25 ppm of compound 1, the sample was placed in a vial, diluted to 400 μl and 200 μl of the standard solution was added. Each vial was protected from exposure to light by being wrapped in aluminium foil.
The relative content of compound 1 in irradiated samples was calculated against the non-irradiated reference (set at 100%) using an Agilent Technologies 1200 series HPLC equipped with a degasser G1379B, a binary pump G1312B (large-volume mixer was by-passed), a well-plate high performance autosampler G1367D, a thermostatted column compartment G1316B and a UV (DAD) detector G1315C. The column (ZORBAX Eclipse Plus C18 600Bar 2.1×100 mm, 1.8 μm (#959764-902) was set at 60° C.±0.1° C. Two solvents were used: Solvent “A” was formic acid 0.1% in water, ULC/MS, Biosolve (ready-mix cat.# 23244102); solvent “B” was formic acid 0.1% in acetonitrile, ULC/MS, Biosolve (ready-mix cat. #01934125). The solvent flow rate was 0.500 ml/min; Injection: 2 μl.
Solvent gradient: 0 min-1 min: 95% A • 1 min-8 min: 95% A à 100% B • 8 min-10 min: 100% B • 10 min-12 min: 100% B à 95% A • Post-equilibration 1 min
Detector: UV-DAD: • Caffeine (internal standard): signal 273 nm, Bw 16 • Compound 1: signal 264 nm, Bw 8 • signal 230 nm, Bw 8
The signal at 264 nm was used for the quantification calculations.

[2] = Photostability of compound 1 under UV (xenon lamp) irradiation, fluorimetry measurement; format: physicochemical; conditions: 25 ppm compound 1 in water
Method: as §1, §2
The sample to be studied was placed in quartz cell (width lcm). Fluorescence was detected at an angle 90° to the incident exciting beam using a Fluorolog-3 spectrofluorometer (Model FL3-22, Jobin Yvon-Spex Instruments SA, Inc). […] Excitation and emission spectra of each sample were provided.
For calibration, the excitation and emission spectra of compound 1 solutions were measured before and after irradiation. The intensity of the emission maximum of the unirradiated solution was given the value as 100%. The ratio between the intensities of emission maxima of irradiated and unirradiated samples was measured and the results calculated as a percentage.

SMILES: CCCCCCCCCCCCCCCC[N+](C)(C)C.[Br-] [CTAB, Cetyl trimethylammonium bromide, reference compound]
- photodegradation protection of compound 1 (in words) [1]: little or no photodegradation protection

- % remaining (compound 1) ([1]; Polysorbate 80 concentration 0.0001572 % w/w): 0%
- % remaining (compound 1) ([1]; Polysorbate 80 concentration 0.0002145 % w/w): 0%
- % remaining (compound 1) ([1]; Polysorbate 80 concentration 0.001572 % w/w): 0%
- % remaining (compound 1) ([1]; Polysorbate 80 concentration 0.008 % w/w): 0%
- % remaining (compound 1) ([1]; Polysorbate 80 concentration 0.01 % w/w): 0%
- % remaining (compound 1) ([1]; Polysorbate 80 concentration 0.05 % w/w): 6.55%
- % remaining (compound 1) ([1]; Polysorbate 80 concentration 0.1 % w/w): 6.81%
- % remaining (compound 1) ([1]; Polysorbate 80 concentration 0.5 % w/w): 12.97%
- % remaining (compound 1) ([1]; Polysorbate 80 concentration 1 % w/w): 22.24%
- % remaining (compound 1) ([1]; Polysorbate 80 concentration 4 % w/w): 47%
- % remaining (compound 1) ([1]; Polysorbate 80 concentration 8.5 % w/w): 88.57%
- % remaining (compound 1) ([1]; Polysorbate 80 concentration 15 % w/w): 97.03%
- HPLC % remaining ([1]; time of irradiation 0 min (non-irradiated reference set at 100%)): 100%
- HPLC % remaining ([1]; time of irradiation 5 min): 79.7%
- HPLC % remaining ([1]; time of irradiation 10 min): 62.2%
- HPLC % remaining ([1]; time of irradiation 20 min): 46.3%
- HPLC % remaining ([1]; time of irradiation 30 min): 32.3%
- HPLC % remaining ([1]; time of irradiation 45 min): 24.8%
- HPLC % remaining ([1]; time of irradiation 60 min): 18.7%
- HPLC % remaining ([1]; time of irradiation 90 min): 6.9%
- HPLC % remaining ([1]; time of irradiation 120 min): 0%
- HPLC % remaining ([1]; time of irradiation 180 min): 0%
- Time for complete degradation ([1]; initial concentration 5 ppm): 45 min
- Time for complete degradation ([1]; initial concentration 10 ppm): 60 min
- Time for complete degradation ([1]; initial concentration 15 ppm): 90 min
- Time for complete degradation ([1]; initial concentration 25 ppm): 120 min
- Time for complete degradation ([1]; initial concentration 40 ppm): >180 min
- Fluorimetry % remaining ([2]; time of irradiation 0 min (unirradiated solution given the value 100%)): 100%
- Fluorimetry % remaining ([2]; time of irradiation 5 min): 91.3%
- Fluorimetry % remaining ([2]; time of irradiation 10 min): 78.5%
- Fluorimetry % remaining ([2]; time of irradiation 20 min): 52.2%
- Fluorimetry % remaining ([2]; time of irradiation 30 min): 38.7%
- Fluorimetry % remaining ([2]; time of irradiation 45 min): 27.8%
- Fluorimetry % remaining ([2]; time of irradiation 60 min): 21.3%
- Fluorimetry % remaining ([2]; time of irradiation 90 min): 16.2%
- Fluorimetry % remaining ([2]; time of irradiation 120 min): 12.7%
- Fluorimetry % remaining ([2]; time of irradiation 180 min): 6.4%
SMILES: CCCNC(=O)C(C)(C)COc1cccc2c1C(N)=NS(=O)(=O)N2 [Compound 1]

SMILES: CCCCCCCCCCCCOS(=O)(=O)[O-].[Na+] [SDS, Sodium dodecyl sulphate, reference compound]
- photodegradation protection of compound 1 (in words) [1]: little or no photodegradation protection
